We go through five compounds from article PMC3892729 (ACS Medicinal Chemistry Letters, 2013).

Entries after “also recorded” stand apart in the source; their conditions may differ.

The target of assay [1] is T1, human β2 adrenoceptor (Homo sapiens, UniProt P07550). Nature of the assay: SPR binding to captured β2 adrenoceptor, MNG detergent. The following applies: for loss in activity / reduction of affinity versus parent fragment: SPR KD, MNG, I and J versus A, L versus F. Background: Surface plasmon resonance follows binding to a sensor surface in real time, without labels.
Assay [2] deals with T1, human β2 adrenoceptor. Description: SPR binding to captured β2 adrenoceptor, DDM detergent. The note with it: read-out: SPR ka.

T1 sequence (P07550 whole entry, the tested form may be a part): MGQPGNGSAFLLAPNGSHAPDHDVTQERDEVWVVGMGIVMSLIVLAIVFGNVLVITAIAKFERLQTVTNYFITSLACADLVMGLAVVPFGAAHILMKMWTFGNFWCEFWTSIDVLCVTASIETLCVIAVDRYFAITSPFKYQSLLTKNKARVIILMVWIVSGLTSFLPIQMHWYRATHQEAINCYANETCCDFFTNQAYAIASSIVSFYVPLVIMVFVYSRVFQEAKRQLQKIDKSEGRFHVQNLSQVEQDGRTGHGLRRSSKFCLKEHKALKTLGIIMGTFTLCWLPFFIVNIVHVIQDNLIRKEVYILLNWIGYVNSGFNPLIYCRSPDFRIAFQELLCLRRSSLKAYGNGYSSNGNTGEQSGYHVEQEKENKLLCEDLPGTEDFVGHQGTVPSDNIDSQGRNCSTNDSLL

For `Cc1ccc2nc(C(F)(F)F)cc(N3CCN(C)CC3)c2c1` [I], the “loss in activity / reduction of affinity versus parent fragment” value (“loss in activity / reduction” for short) at human β2 adrenoceptor [1] came out at 50 fold.

As to `Cc1ccc2nc(C(F)(F)F)cc(N3CCC(F)(F)CC3)c2c1` [J], the “loss in activity / reduction” value at human β2 adrenoceptor [1] is reported as 2000 fold.

On to `Cc1ccc2nc(C(F)(F)F)cc(N3CCOCC3)c2c1` [K], for which the “KD (result in words)” value on human β2 adrenoceptor [1] (MNG detergent) was “ablation of activity; also recorded: no binding”.

For `c1cc(N2CCNCC2)ccn1` [L], on human β2 adrenoceptor [1], the “loss in activity / reduction” value turned out to be 400 fold.

Regarding `CC(Cc1ccc(O)cc1)NCC(O)c1cc(O)cc(O)c1` (centres unmarked) [fenoterol], the kon on human β2 adrenoceptor [2] was found to be 545000 M⁻¹ s⁻¹.
